Like-named read-outs stand apart in the source and are kept apart here. Blank lines part the entries; values can stand above or below the molecule they belong to.
Assays:
[1] = Absorption in rats after intragastric administration of different crystal forms (plasma PK, LC/MS/MS); type: in vivo; conditions: 8 mg/kg
Experimental: SD rats were intragastrically administered samples of different crystal forms. Blood samples (0.4 mL) were respectively collected from the venous plexus of the rat's fundus oculi at various time points: before administration and at 5, 15, 30, 60, 90, 120, 240, 360, 480, 600, and 1440 minutes after administration. The blood samples were centrifuged at 8000 rpm for 5 minutes to separate the upper plasma. 50 μL of plasma sample was added with 300 μL of acetonitrile containing an internal standard (Propranolol, 25 ng/mL) to precipitate proteins. The mixture was vortexed for 10 minutes, and centrifuged at 6000 g and 4° C. for 20 minutes. The supernatant (20 μL) was taken and diluted with 80 μL of ultrapure water. After centrifugation, 80 μL of the supernatant was taken for injection into a 96-well plate. The plasma drug concentration was determined using LC/MS/MS, and the corresponding pharmacokinetic parameters were calculated, as shown in Table 17.

ErbB2 kinase (HER2) = molecular target: T1, ErbB2 kinase (HER2) (Homo sapiens, UniProt P04626); experiment: EGFR/ErbB2 enzymatic assay (HTRF kinEASE-TK), ErbB2; type: biochemical; conditions: ErbB2 kinase 0.06 ng/μL, ATP 4 μM
T1 construct: purchased Sigma E2645-500UN
T1 sequence (P04626 23-1255): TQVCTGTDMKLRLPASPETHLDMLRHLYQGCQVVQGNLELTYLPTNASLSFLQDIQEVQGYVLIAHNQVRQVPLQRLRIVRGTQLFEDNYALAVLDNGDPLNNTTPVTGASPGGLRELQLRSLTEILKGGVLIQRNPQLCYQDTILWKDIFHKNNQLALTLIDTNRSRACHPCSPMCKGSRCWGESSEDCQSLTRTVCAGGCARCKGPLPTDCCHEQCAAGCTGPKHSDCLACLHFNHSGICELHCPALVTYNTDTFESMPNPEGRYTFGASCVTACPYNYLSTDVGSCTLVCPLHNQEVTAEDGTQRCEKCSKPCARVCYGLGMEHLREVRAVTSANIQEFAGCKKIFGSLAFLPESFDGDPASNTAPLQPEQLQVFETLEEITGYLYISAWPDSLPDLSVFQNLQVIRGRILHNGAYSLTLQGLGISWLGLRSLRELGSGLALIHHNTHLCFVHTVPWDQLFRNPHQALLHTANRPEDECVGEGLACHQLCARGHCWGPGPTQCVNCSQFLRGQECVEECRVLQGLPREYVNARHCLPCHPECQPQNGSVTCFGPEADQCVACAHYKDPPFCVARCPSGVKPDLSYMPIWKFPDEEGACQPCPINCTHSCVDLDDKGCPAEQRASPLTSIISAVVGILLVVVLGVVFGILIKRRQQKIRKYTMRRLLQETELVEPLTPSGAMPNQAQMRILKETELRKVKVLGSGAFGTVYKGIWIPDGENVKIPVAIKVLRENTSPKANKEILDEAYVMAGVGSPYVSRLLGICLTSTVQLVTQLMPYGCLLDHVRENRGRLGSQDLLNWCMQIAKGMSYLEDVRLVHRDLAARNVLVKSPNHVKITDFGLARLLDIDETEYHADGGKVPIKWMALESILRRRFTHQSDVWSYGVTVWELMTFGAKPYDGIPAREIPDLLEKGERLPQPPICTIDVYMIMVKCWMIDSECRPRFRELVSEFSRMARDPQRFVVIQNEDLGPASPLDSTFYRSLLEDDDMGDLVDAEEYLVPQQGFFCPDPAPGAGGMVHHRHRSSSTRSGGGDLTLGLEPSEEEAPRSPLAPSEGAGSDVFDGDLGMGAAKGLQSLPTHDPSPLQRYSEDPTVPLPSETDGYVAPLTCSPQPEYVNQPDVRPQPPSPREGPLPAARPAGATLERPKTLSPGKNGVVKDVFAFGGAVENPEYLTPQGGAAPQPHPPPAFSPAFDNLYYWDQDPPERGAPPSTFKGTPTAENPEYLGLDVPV
Experimental: (§1) First, a 1× reaction buffer required for the kinase was prepared by diluting the 5× Enzymatic Buffer (HEPES 20 mM, pH 7.0, NaN3 0.1%, BSA 0.05%, sodium orthovanadate 0.5 mM) from the HTRF kinEASE-TK kit with deionized water to one-fold. At the same time, 50 nM Supplement Enzymatic Buffer (SEB reagent), 1 mM MnCl2, 5 mM MgCl2, and 1 mM DTT were added. Next, a 5× compound solution was prepared. […] This initial concentration was then used as the first concentration, and further diluted with DMSO in a 3-fold serial dilution to dilute a total of 10 concentrations. Subsequently, 1 μL of the serially diluted solution was added to 19 μL of 1× reaction buffer to prepare the 5× compound solution for later use. Then, 2 μL of the 5× compound solution was transferred from the 96-well plate into a 384-well plate. In the no-compound control wells, 2 μL of a mixture of 1 μL DMSO and 19 μL 1× reaction buffer was added. In the blank control wells, 2 μL of 250 mM EDTA was added. In the third step, the enzyme reaction stage, the kinase, substrate (TK Substrate-biotin), and ATP were prepared into a 2.5× enzyme/substrate mixture and a 2.5× ATP solution using the 1× reaction buffer. […] Data were measured on EnVision™, with a 337 nm laser used as the excitation light. The RFU was measured at 665 nm and 620 nm, and RFU 665 nM/RFU 620 nM×10000 was used as the final data for analysis.

EGFR kinase = molecular target: T2, EGFR kinase (Homo sapiens, UniProt P00533); experiment: EGFR/ErbB2 enzymatic assay (HTRF kinEASE-TK), EGFR; type: biochemical; conditions: EGFR kinase 0.06 units/μL, ATP 1.65 μM
T2 construct: purchased Carna 08-016
T2 sequence (P00533 25-1210): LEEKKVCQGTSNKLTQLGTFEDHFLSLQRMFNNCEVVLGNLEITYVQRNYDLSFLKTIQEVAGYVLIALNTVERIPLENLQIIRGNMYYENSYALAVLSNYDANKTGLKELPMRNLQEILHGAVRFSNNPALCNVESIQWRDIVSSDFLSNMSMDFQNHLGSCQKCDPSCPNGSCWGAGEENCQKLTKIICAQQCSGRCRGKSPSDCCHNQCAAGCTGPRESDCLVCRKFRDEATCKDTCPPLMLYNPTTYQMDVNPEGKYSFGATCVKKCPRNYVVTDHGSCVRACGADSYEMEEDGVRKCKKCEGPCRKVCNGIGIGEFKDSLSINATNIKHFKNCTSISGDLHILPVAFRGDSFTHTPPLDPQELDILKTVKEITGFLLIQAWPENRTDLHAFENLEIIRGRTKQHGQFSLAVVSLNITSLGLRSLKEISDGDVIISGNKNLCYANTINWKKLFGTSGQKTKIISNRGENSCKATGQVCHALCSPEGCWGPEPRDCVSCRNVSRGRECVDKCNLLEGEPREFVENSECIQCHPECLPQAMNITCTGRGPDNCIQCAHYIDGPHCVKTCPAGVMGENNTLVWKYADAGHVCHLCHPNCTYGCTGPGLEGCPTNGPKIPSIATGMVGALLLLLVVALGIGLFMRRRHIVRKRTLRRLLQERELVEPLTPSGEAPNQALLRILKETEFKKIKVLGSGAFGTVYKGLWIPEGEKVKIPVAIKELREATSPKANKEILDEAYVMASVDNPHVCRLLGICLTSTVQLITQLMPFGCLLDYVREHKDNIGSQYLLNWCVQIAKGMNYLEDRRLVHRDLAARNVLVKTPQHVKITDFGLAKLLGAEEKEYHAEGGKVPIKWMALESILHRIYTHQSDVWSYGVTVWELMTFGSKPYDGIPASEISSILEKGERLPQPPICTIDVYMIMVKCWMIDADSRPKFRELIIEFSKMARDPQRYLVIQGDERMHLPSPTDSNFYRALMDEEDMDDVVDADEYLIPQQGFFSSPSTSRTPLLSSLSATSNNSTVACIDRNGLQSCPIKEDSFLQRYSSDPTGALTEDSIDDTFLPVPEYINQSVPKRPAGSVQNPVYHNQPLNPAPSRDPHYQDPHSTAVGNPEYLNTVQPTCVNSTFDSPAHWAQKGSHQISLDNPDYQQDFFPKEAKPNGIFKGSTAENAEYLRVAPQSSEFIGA
Experimental: as §1

[2] = Physicochemical stability of crystal form C (UPLC purity, XRPD)
Experimental: The solid samples after being placed under different conditions were respectively tested for purity by UPLC to evaluate chemical stability, and the crystal form was tested by XRPD to evaluate physical stability. […] Additionally, no significant degradation was observed after one day at 60° C. or one week at 25° C./60% RH and 40° C./75% RH (details of purity changes are provided in Table 16).

Structure (SMILES): CCOc1cc2ncnc(Nc3ccc(Oc4ccn5ncnc5c4)c(C)c3)c2cc1NC(=O)/C(F)=C/[C@H]1CCCN1C [Crystal form M, (R,Z)-N-(4-((4-([1,2,4]triazolo[1,5-α]pyridin-7-yloxy)-3-methylphenyl)amino)-7-ethoxyquinazolin-6-yl)-2-fluoro-3-(1-methylpyrrolidin-2-yl)acrylamide]
- AUCextra ([1]; SD rats): 0.169 (h)*(ng/mL)
- AUClast ([1]; SD rats): 2870 (h)*(ng/mL)
- AUCtot ([1]; SD rats): 2875 (h)*(ng/mL)
- Cmax ([1]; SD rats): 489 ng/mL
- MRT ([1]; SD rats): 4.59 h
- Tmax ([1]; SD rats): 2.00 h
- t1/2 ([1]; SD rats): 2.55 h

Structure (SMILES): CCOc1cc2ncnc(Nc3ccc(Oc4ccn5ncnc5c4)c(C)c3)c2cc1NC(=O)/C(F)=C/[C@H]1CCCN1C [Crystal form C, (R,Z)-N-(4-((4-([1,2,4]triazolo[1,5-α]pyridin-7-yloxy)-3-methylphenyl)amino)-7-ethoxyquinazolin-6-yl)-2-fluoro-3-(1-methylpyrrolidin-2-yl)acrylamide]
- IC50 (ErbB2 kinase (HER2)): 260 pM
- IC50 (EGFR kinase): 1450 pM
- AUCextra ([1]; SD rats): 0.451 (h)*(ng/mL)
- AUClast ([1]; SD rats): 6863 (h)*(ng/mL)
- AUCtot ([1]; SD rats): 6894 (h)*(ng/mL)
- Cmax ([1]; SD rats): 1165 ng/mL
- MRT ([1]; SD rats): 4.63 h
- Tmax ([1]; SD rats): 2.00 h
- t1/2 ([1]; SD rats): 3.04 h
- Stability sample purity ([2]; 25° C./60% RH, 1 week, open): 99.29 area %
- Peak at RRT 0.63 ([2]; 25° C./60% RH, one week): 0.18%
- Peak at RRT 0.67 ([2]; 25° C./60% RH, one week): 0.18%
- Peak at RRT 0.95 ([2]; 25° C./60% RH, one week): 0.08%
- Peak at RRT 1.00 ([2]; 25° C./60% RH, one week): 99.29%
- Peak at RRT 1.03 ([2]; 25° C./60% RH, one week): 0.12%
- Peak at RRT 1.08 ([2]; 25° C./60% RH, one week): 0.15%
- Stability sample purity ([2]; 40° C./75% RH, 1 week, open): 99.29 area %
- Peak at RRT 0.63 ([2]; 40° C./75% RH, one week): 0.18%
- Peak at RRT 0.67 ([2]; 40° C./75% RH, one week): 0.18%
- Peak at RRT 0.95 ([2]; 40° C./75% RH, one week): 0.08%
- Peak at RRT 1.00 ([2]; 40° C./75% RH, one week): 99.29%
- Peak at RRT 1.03 ([2]; 40° C./75% RH, one week): 0.12%
- Peak at RRT 1.08 ([2]; 40° C./75% RH, one week): 0.15%
- Stability sample purity ([2]; 60° C., 24 hours, sealed): 99.29 area %
- Peak at RRT 0.63 ([2]; 60° C., one day): 0.18%
- Peak at RRT 0.67 ([2]; 60° C., one day): 0.18%
- Peak at RRT 0.95 ([2]; 60° C., one day): 0.08%
- Peak at RRT 1.00 ([2]; 60° C., one day): 99.29%
- Peak at RRT 1.03 ([2]; 60° C., one day): 0.12%
- Peak at RRT 1.08 ([2]; 60° C., one day): 0.15%
- Peak at RRT 0.63 ([2]; Initial sample): 0.18%
- Peak at RRT 0.67 ([2]; Initial sample): 0.18%
- Peak at RRT 0.95 ([2]; Initial sample): 0.08%
- Peak at RRT 1.00 ([2]; Initial sample): 99.31%
- Peak at RRT 1.03 ([2]; Initial sample): 0.10%
- Peak at RRT 1.08 ([2]; Initial sample): 0.15%
- Crystal form change ([2]; XRPD, 60° C. 24 hours, 25° C./60% RH 1 week, 40° C./75% RH 1 week): No
- Initial purity ([2]; before storage, UPLC): 99.31 area %

Structure (SMILES): CCOc1cc2ncnc(Nc3ccc(Oc4ccn5ncnc5c4)c(C)c3)c2cc1NC(=O)/C(F)=C/[C@H]1CCCN1C [Amorphous form, (R,Z)-N-(4-((4-([1,2,4]triazolo[1,5-α]pyridin-7-yloxy)-3-methylphenyl)amino)-7-ethoxyquinazolin-6-yl)-2-fluoro-3-(1-methylpyrrolidin-2-yl)acrylamide]
- AUCextra ([1]; SD rats): 0.758 (h)*(ng/mL)
- AUClast ([1]; SD rats): 6536 (h)*(ng/mL)
- AUCtot ([1]; SD rats): 6586 (h)*(ng/mL)
- Cmax ([1]; SD rats): 800 ng/mL
- Tmax ([1]; SD rats): 6.00 h
- half-life ([1]; SD, rat, plasma, po): 3.03 h
- MRT ([1]; SD, rat, plasma, po, read-out: MRT): 6.52 h

The remaining lines, values ahead:

- AUCextra ([1]; SD rats): 0.288 (h)*(ng/mL)
- AUClast ([1]; SD rats): 4789 (h)*(ng/mL)
- AUCtot ([1]; SD rats): 4802 (h)*(ng/mL)
- Cmax ([1]; SD rats): 753 ng/mL
- MRT ([1]; SD rats): 4.74 h
- Tmax ([1]; SD rats): 2.00 h
- t1/2 ([1]; SD rats): 2.74 h
Structure (SMILES): CCOc1cc2ncnc(Nc3ccc(Oc4ccn5ncnc5c4)c(C)c3)c2cc1NC(=O)/C(F)=C/[C@H]1CCCN1C [Crystal form A, (R,Z)-N-(4-((4-([1,2,4]triazolo[1,5-α]pyridin-7-yloxy)-3-methylphenyl)amino)-7-ethoxyquinazolin-6-yl)-2-fluoro-3-(1-methylpyrrolidin-2-yl)acrylamide]

- AUCextra ([1]; SD rats): 1.01 (h)*(ng/mL)
- AUClast ([1]; SD rats): 5904 (h)*(ng/mL)
- AUCtot ([1]; SD rats): 5965 (h)*(ng/mL)
- Cmax ([1]; SD rats): 599 ng/mL
- MRT ([1]; SD rats): 6.07 h
- Tmax ([1]; SD rats): 6.00 h
- t1/2 ([1]; SD rats): 3.34 h
Structure (SMILES): CCOc1cc2ncnc(Nc3ccc(Oc4ccn5ncnc5c4)c(C)c3)c2cc1NC(=O)/C(F)=C/[C@H]1CCCN1C [Crystal form B, (R,Z)-N-(4-((4-([1,2,4]triazolo[1,5-α]pyridin-7-yloxy)-3-methylphenyl)amino)-7-ethoxyquinazolin-6-yl)-2-fluoro-3-(1-methylpyrrolidin-2-yl)acrylamide]

— patent US20250163053A1, “CRYSTALLINE FORM OF NITROGEN-CONTAINING HETEROCYCLIC COMPOUND, PREPARATION METHOD THEREFOR AND USE THEREOF” (SHANGHAI PHARMACEUTICALS HOLDING CO., LTD., priority 2022, published 2025)
